This note sets out measurements from patent publication US12692249B2, “WDR5 inhibitors and modulators” (Vanderbilt University, priority 2019, dated 2026).

For one test, the target named is WDR5 (Homo sapiens, UniProt P61964). The test can be described thus: TR-FRET competition binding assay, displacement of 10mer-Thr-FAM MLL peptide probe from His-tagged WDR5. The settings on record: WDR5-His tag (residues 24-334) 2 nM; 10mer-Thr-FAM 150 nM; 60 min, room temperature; read-out: Ki for Inhibition of WDR5 by TR-FRET assay. How it is done: Time Resolved-Fluorescence Energy Transfer Competition Assay […] Excess 10mer-Thr-FAM probe was utilized with His-tagged WDR5 in conjunction with a commercial anti-His antibody containing a Terbium label. The LanthaScreenTM Elite Tb-anti-HIS Antibody from ThermoFisher Scientific was used for this purpose. […] The 10mer-Thr-FAM probe when bound to WDR5 will undergo a FRET interaction with the Tb-anti-HIS and emit at 520 nm. […] WDR[…] 10[…] used at 150 nM. […] A source plate is prepared using an Echo Liquid Handler, which distributes the compounds to the assay plate (white, flat-bottom; OptiPlate) in a 10-point, 5-fold dilution schemes with a top concentration of 5 μM, in a final volume of 20 μL. […] The final DMSO concentration in each well of the assay plate is 1% or lower. The plate is covered, shielded from light, and incubated for 60 minutes at room temperature with rocking. 10mer-Thr-FAM and Anti-His terbium antibody fluorescence is then measured on a Biotek Cytation 3 at excitation wavelength of 340 nm, and emission wavelengths of 495 nm and 520 nm. […] TR-FRET signal is plotted and IC50 and Ki values are calculated according to the formula of Wang Z. FEBS Lett (1996) 3, 245. Ki=[I]50/([L]50/Kd+[P]0/Kd+1) where [I]50 is the concentration of the free inhibitor at 50% inhibition, [L]50 is the concentration of the free labeled ligand at 50% inhibition, [P]0 is the concentration of the free protein at 0% inhibition, Kd represents the dissociation constant of the FITC-MLL or 10mer-Thr-FAM probe for WDR5. Total fluorescence is also measured, to rule out compounds that are inherently fluorescent or able to act as quenchers in the assay. TR-FRET Binding Assay

For test [1], the system named is MV4:11 human cancer cell lines. Nature of the test: Cellular viability / anti-proliferative assay, CellTiter-Glo, 5 day protocol. The test is classed as cell-based. The settings on record: Homo sapiens, MV4-11, 120 h, MV4:11 cells; 5 day incubation; CellTiter-Glo; mean of at least two replicates; read-out: GI50 on cellular proliferation of MV4:11 human cancer cell lines. A digest of the protocol:
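MV-4-11 cells in IMDM with 10% FBS, 200 cells/well, exposed 5 days to 22 two-fold dilutions from 30 μM, final DMSO 0.3%. Viability read by CellTiter-Glo luminescence; GI50 from sigmoidal dose-response fit, mean of at least two replicates.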

Structures are written as SMILES.

As usually defined, the Ki is a dissociation constant, usually derived from enzyme kinetics or from competition with a known ligand. On to `CCc1cc(OC)c2nccc(N3CCc4c(cc(Cn5ccnc5)cc4-c4cn(C)nc4C(F)(F)F)C3=O)c2c1` [Example 20, 7-((1H-Imidazol-1-yl)methyl)-2-(6-ethyl-8-methoxyquinolin-4-yl)-5-(1-methyl-3-(trifluoromethyl)-1H-pyrazol-4-yl)-3,4-dihydroisoquinolin-1(2H)-one], for which the inhibitory constant (Ki) at WDR5 was less than 0.02 nM. In test [1], the GI50 was less than 20 nM.

Turning to `COc1ccc2c(Cl)ncc(N3CCc4c(cc(Cn5ccnc5)cc4-c4cn(C)nc4C(F)(F)F)C3=O)c2c1` [Example 21, 7-((1H-Imidazol-1-yl)methyl)-1′-chloro-6′-methoxy-5-(1-methyl-3-(trifluoromethyl)-1H-pyrazol-4-yl)-3,4-dihydro-1H-[2,4′-biisoquinolin]-1-one], at WDR5, the Ki is less than 0.02 nM. Also, the GI50 in test [1] amounted to 23 nM.

Take `COc1ccc2c(OC)ncc(N3CCc4c(cc(Cn5ccnc5)cc4-c4cn(C)nc4C(F)(F)F)C3=O)c2c1` [Example 22, 7-((1H-imidazol-1-yl)methyl)-1′,6′-dimethoxy-5-(1-methyl-3-(trifluoromethyl)-1H-pyrazol-4-yl)-3,4-dihydro-1H-[2,4′-biisoquinolin]-one]: the Ki on WDR5 was 0.029 nM. In test [1], the GI50 stood at 111 nM.

Take `COc1ccc(N2CCc3c(cc(Cn4ccnc4)cc3-c3cn(C)nc3C(F)(F)F)C2=O)c2cc(C)cnc12` [Example 23, 7-((1H-Imidazol-1-yl)methyl)-2-(8-methoxy-3-methylquinolin-5-yl)-5-(1-methyl-3-(trifluoromethyl)-1H-pyrazol-4-yl)-3,4-dihydroisoquinolin-1(2H)-one]: the inhibition constant (Ki) at WDR5 is less than 0.02 nM. The GI50 in test [1] came to 210 nM.

In the case of `Cc1cc(Cl)c2cncc(N3CCc4c(cc(Cn5ccnc5)cc4-c4cn(C)nc4C(F)(F)F)C3=O)c2c1` [Example 24, 7-((1H-Imidazol-1-yl)methyl)-8′-chloro-6′-methyl-5-(1-methyl-3-(trifluoromethyl)-1H-pyrazol-4-yl)-3,4-dihydro-1H-[2,4′-biisoquinolin]-1-one], on WDR5, the Ki stood at 0.026 nM. Also, in test [1], the GI50 came to 92 nM.

Turning to `COc1ccc2ncnc(N3CCc4c(cc(Cn5ccnc5)cc4-c4cn(C)nc4C(F)(F)F)C3=O)c2c1` [Example 25, 7-((1H-Imidazol-1-yl)methyl)-2-(6-methoxyquinazolin-4-yl)-5-(1-methyl-3-(trifluoromethyl)-1H-pyrazol-4-yl)-3,4-dihydroisoquinolin-1(2)-one], the inhibition constant Ki on WDR5 was found to be 0.061 nM. For the same compound, the GI50 in test [1] was determined as 70 nM.

Turning to `Cc1cc2c(N3CCc4c(cc(Cn5ccnc5)cc4-c4cn(C)nc4C(F)(F)F)C3=O)cccc2n1C` [Example 26, 7-((1H-Imidazol-1-yl)methyl)-2-(1,2-dimethyl-1H-indol-4-yl)-5-(1-methyl-3-(trifluoromethyl)-1H-pyrazol-4-yl)-3,4-dihydroisoquinolin-1(2H)-one], the Ki at WDR5 is 0.087 nM. The GI50 in test [1] came to 369 nM.

`Cc1nc2cccc(N3CCc4c(cc(Cn5ccnc5)cc4-c4cn(C)nc4C(F)(F)F)C3=O)c2o1` [Example 27, 7-((1H-Imidazol-1-yl)methyl)-5-(1-methyl-3-(trifluoromethyl)-1H-pyrazol-4-yl)-2-(2-methylbenzo[d]oxazol-7-yl)-3,4-dihydroisoquinolin-1(2H)-one]: the inhibition constant (Ki) at WDR5 stood at 4.6 nM. Further, in test [1], the GI50 is greater than 30000 nM.

Regarding `Cc1cc2c(N3CCc4c(cc(Cn5ccnc5)cc4-c4cn(C)nc4C(F)(F)F)C3=O)ccnc2n1C` [Example 28, 7-((1H-Imidazol-1-yl)methyl)-2-(1,2-dimethyl-1H-pyrrolo[2,3-b]pyridin-4-yl)-5-(1-methyl-3-(trifluoromethyl)-1H-pyrazol-4-yl)-3,4-dihydroisoquinolin-1(2H)-one], at WDR5, the Ki worked out at 0.032 nM. Further, in test [1], the GI50 came to 281 nM.

For `COc1cc(Br)c2nccc(N3CCc4c(cc(Cn5ccnc5)cc4-c4cn(C)nc4C(F)(F)F)C3=O)c2c1` [Example 29, 7-((1H-Imidazol-1-yl)methyl)-2-(8-bromo-6-methoxyquinolin-4-yl)-5-(1-methyl-3-(trifluoromethyl)-1H-pyrazol-4-yl)-3,4-dihydroisoquinolin-1(2H)-one], the Ki at WDR5 was less than 0.02 nM. Also, in test [1], the GI50 was found to be 65 nM.

On to `COc1cc(N2CCOCC2)c2nccc(N3CCc4c(cc(Cn5ccnc5)cc4-c4cn(C)nc4C(F)(F)F)C3=O)c2c1` [Example 30, 7-((1H-Imidazol-1-yl)methyl)-2-(6-methoxy-8-morpholinoquinolin-4-yl)-5-(1-methyl-3-(trifluoromethyl)-1H-pyrazol-4-yl)-3,4-dihydroisoquinolin-1(2H)-one], for which, at WDR5, the Ki was less than 0.02 nM. Further, the GI50 in test [1] was less than 20 nM.

Regarding `COc1cc(N2CCN(C)CC2)c2nccc(N3CCc4c(cc(Cn5ccnc5)cc4-c4cn(C)nc4C(F)(F)F)C3=O)c2c1` [Example 31, 7-((1H-Imidazol-1-yl)methyl)-2-(6-methoxy-8-(4-methylpiperazin-1-yl)quinolin-4-yl)-5-(1-methyl-3-(trifluoromethyl)-1H-pyrazol-4-yl)-3,4-dihydroisoquinolin-1(2H)-one], the Ki on WDR5 was less than 0.02 nM. Also, the GI50 in test [1] is less than 20 nM.

Consider `CCc1cc(N(C)C)c2nccc(N3CCc4c(cc(Cn5ccnc5)cc4-c4cn(C)nc4C(F)(F)F)C3=O)c2c1` [Example 35, 7-((1H-Imidazol-1-yl)methyl)-2-(8-(dimethylamino)-6-ethylquinolin-4-yl)-5-(1-methyl-3-(trifluoromethyl)-1H-pyrazol-4-yl)-3,4-dihydroisoquinolin-1(2H)-one], for which the Ki at WDR5 is less than 0.02 nM. Also, the GI50 in test [1] came to 76 nM.

On to `CCc1cc(N2CCOCC2)c2nccc(N3CCc4c(cc(Cn5ccnc5)cc4-c4cn(C)nc4C(F)(F)F)C3=O)c2c1` [Example 36, 7-((1H-Imidazol-1-yl)methyl)-2-(6-ethyl-8-morpholinoquinolin-4-yl)-5-(1-methyl-3-(trifluoromethyl)-1H-pyrazol-4-yl)-3,4-dihydroisoquinolin-1(2H)-one], for which the Ki on WDR5 was less than 0.02 nM. For the same compound, the GI50 in test [1] turned out to be 23 nM.

With `CCc1cc(N2CCN(C)CC2)c2nccc(N3CCc4c(cc(Cn5ccnc5)cc4-c4cn(C)nc4C(F)(F)F)C3=O)c2c1` [Example 37, 7-((1H-Imidazol-1-yl)methyl)-2-(6-ethyl-8-(4-methylpiperazin-1-yl)quinolin-4-yl)-5-(1-methyl-3-(trifluoromethyl)-1H-pyrazol-4-yl)-3,4-dihydroisoquinolin-1(2H)-one], at WDR5, the inhibition constant Ki was less than 0.02 nM. The GI50 in test [1] is less than 20 nM.

For the compound `CCc1cc(N(C)CCN(C)C)c2nccc(N3CCc4c(cc(Cn5ccnc5)cc4-c4cn(C)nc4C(F)(F)F)C3=O)c2c1` [Example 38, 7-((1H-Imidazol-1-yl)methyl)-2-(8-((2-(dimethylamino)ethyl)(methyl)amino)-6-ethylquinolin-4-yl)-5-(1-methyl-3-(trifluoromethyl)-1H-pyrazol-4-yl)-3,4-dihydroisoquinolin-1(2H)-one], at WDR5, the inhibitory constant (Ki) was less than 0.02 nM. In addition, the GI50 in test [1] is 31 nM.

`CNC(=O)c1cc(OC)cc2c(N3CCc4c(cc(Cn5ccnc5)cc4-c4cn(C)nc4C(F)(F)F)C3=O)ccnc12` [Example 42, 4-(7-((1H-Imidazol-1-yl)methyl)-5-(1-methyl-3-(trifluoromethyl)-1H-pyrazol-4-yl)-1-oxo-3,4-dihydroisoquinolin-2(1H)-yl)-6-methoxy-N-methylquinoline-8-carboxamide]: the Ki at WDR5 is less than 0.02 nM. The GI50 in test [1] is 20 nM.

For `COc1cc(C(=O)N2CCCC2)c2nccc(N3CCc4c(cc(Cn5ccnc5)cc4-c4cn(C)nc4C(F)(F)F)C3=O)c2c1` [Example 44, 7-((1H-Imidazol-1-yl)methyl)-2-(6-methoxy-8-(pyrrolidine-1-carbonyl)quinolin-4-yl)-5-(1-methyl-3-(trifluoromethyl)-1H-pyrazol-4-yl)-3,4-dihydroisoquinolin-1(2H)-one], on WDR5, the Ki is less than 0.02 nM. Further, in test [1], the GI50 is 353 nM.

In the case of `COCCNC(=O)c1cc(OC)cc2c(N3CCc4c(cc(Cn5ccnc5)cc4-c4cn(C)nc4C(F)(F)F)C3=O)ccnc12` [Example 49, 4-(7-((1H-Imidazol-1-yl)methyl)-5-(1-methyl-3-(trifluoromethyl)-1H-pyrazol-4-yl)-1-oxo-3,4-dihydroisoquinolin-2(1H)-yl)-6-methoxy-N-(2-methoxyethyl)quinoline-8-carboxamide], the inhibition constant (Ki) at WDR5 was less than 0.02 nM. The GI50 in test [1] was 34 nM.
